Source: patent US10093656B2, “Fused-ring or tricyclic aryl pyrimidine compound used as kinase inhibitor” (NANJING SANHOME PHARMACEUTICAL CO., LTD, priority 2015, dated 2018)

Key:
[1] = tested on: NCI-H1975 cells EGFR L858R/T790M; assay: NCI-H1975 cell viability assay (Cell Titer-Glo, 6 days); assay type: cell-based; settings: Homo sapiens, 144 h
Method in brief: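 A431 (EGFR WT) and NCI-H1975 (EGFR L858R/T790M) cells treated for 6 days at 37° C, in duplicate with 10 three-fold doses from 10 μM to 0.508 nM final. Viability read as CellTiter-Glo luminescence. IC50 from four-parameter fit of % inhibition.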

[2] = tested on: NCI-H1975 lung cancer patient-derived xenograft (CDX); assay: Pharmacodynamics study in vivo, NCI-H1975 xenograft (CDX) model; set-up: species or system BALB/c nude mice; settings: AZD9291 5 mg/kg
Method in brief: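 Tumour volume, from two-dimensional caliper readings twice a week as V = 0.5 a×b2, followed over 21 days of daily oral dosing at 10 or 20 mg/kg. Hosts were female BALB/c nude mice, 6-8 weeks, bearing subcutaneous NCI-H1975 implants grown to about 150-200 mm^3 before treatment.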

EGFR d746-750/T790M = biological target: T1, EGFR d746-750/T790M (Homo sapiens, UniProt P00533, DEL746-750/T790M); assay: EGFR d746-750/T790M enzyme HTRF inhibition assay; assay type: biochemical; settings: 40 μM ATP
T1 construct: purchased Carna Biosciences (Japan)
T1 sequence (P00533 with tags, fused parts or gaps DEL746-750/T790M limits assumed): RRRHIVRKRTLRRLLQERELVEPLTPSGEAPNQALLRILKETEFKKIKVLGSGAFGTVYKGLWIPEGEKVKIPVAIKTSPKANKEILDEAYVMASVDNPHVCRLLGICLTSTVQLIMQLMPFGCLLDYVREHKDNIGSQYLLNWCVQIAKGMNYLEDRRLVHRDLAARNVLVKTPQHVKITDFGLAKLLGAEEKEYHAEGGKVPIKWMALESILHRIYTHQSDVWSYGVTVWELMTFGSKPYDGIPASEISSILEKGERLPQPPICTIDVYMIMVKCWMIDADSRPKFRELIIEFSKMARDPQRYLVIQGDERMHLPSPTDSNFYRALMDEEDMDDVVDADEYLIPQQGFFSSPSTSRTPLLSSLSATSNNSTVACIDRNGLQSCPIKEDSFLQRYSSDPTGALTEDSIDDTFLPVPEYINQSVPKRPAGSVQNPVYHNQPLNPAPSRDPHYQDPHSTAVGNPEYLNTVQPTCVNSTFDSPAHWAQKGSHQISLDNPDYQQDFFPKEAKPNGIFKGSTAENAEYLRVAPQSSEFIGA
Method in brief: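 0.025 nM enzyme with 1 μM biotin-TK1 peptide and 40 μM ATP, 60 min at 23° C; compound tested at 10 doses, 300 nM to 0.015 nM final. HTRF read (Eu-anti-TK1 antibody 2 nM, XL665 62.5 nM, 60 min at 23° C); IC50 from four-parameter fit of % inhibition.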

[3] = tested on: human skin squamous cell A431 xenograft (CDX); assay: Selectivity study in vivo, A431 xenograft (CDX) model; set-up: species or system BALB/c nude mice; settings: Table 5 experiment, AZD9291 5 mg/kg
Description: In this model, the less inhibitory effect on the tumor, the better the selectivity in vivo.
The selective experiments in vivo were performed on BALB/c nude mice that subcutaneously implanted human skin squamous cell A431 xenograft (CDX).
BALB/c nude mice, female, 6-8 weeks, weighted about 18-20 grams, the mice were kept in a special pathogen-free environment and in a single ventilation cage (5 mice per cage). The bedding and water of all the cages were disinfected before use. All animals were free to obtain standard certified commercial laboratory diets. All mice were purchased from mice of Shanghai BK Laboratory Animal Co., LTD for research. The tumor tissue (20-30 mm^3) was implanted subcutaneously in the […] of each mouse for tumor growth. The experiment was started when the average tumor volume reached about 150-200 mm^3. The test compound was orally administered (compounds 17, 30, 37 and 38 were administered once daily at 20 mg/kg, the compound AZD9291 was administered once daily at 5 mg/kg, the compound CO-1686 was administered twice daily at 50 mg/kg, the compound Erlotinib was administered once daily at 75 mg/kg and the compound Afatinib was administered once daily at 7.5 mg/kg, 21 days of continuous administration. The data were shown in Table 4; compounds 33, 34, 40, 42 and 43 were administered once daily at 20 mg/kg and compound AZD9291 was administered once daily at5 mg/kg, 21 days of continuous administration. The tumor volume was measured twice a week with a two-dimensional caliper and the volume was measured in cubic millimeters and calculated by the following formula: V=V=0.5 a×b2, where a and b were the major and minor diameters of the tumor, respectively.

## C=CC(=O)Nc1cc(Nc2ncc(F)c(-c3c4n(c5cc(F)ccc35)CCOC4)n2)c(OC)cc1N(C)CCN(C)C [Embodiment 33, N-(2-((2-(Dimethylamino)ethyl)(methyl)amino)-5-((5-fluoro-4-(7-fluoro-3,4-dihydro-1H-[1,4]oxazino[4,3-a]indol-10-yl)pyrimidin-2-yl)amino)-4-methoxyphenyl)acrylamide]
[1]
  IC50: 90 nM
[2]; day 4, oral daily: compound 30 10 mg/kg, 33, 34, 40, 42, 43 20 mg/kg
  Tumor Volume (mm^3) 4 days: 91 mm^3
[2]; day 7, oral daily: compound 30 10 mg/kg, 33, 34, 40, 42, 43 20 mg/kg
  Tumor Volume (mm^3) 7 days: 68 mm^3
[2]; day 11, oral daily: compound 30 10 mg/kg, 33, 34, 40, 42, 43 20 mg/kg
  Tumor Volume (mm^3) 11 days: 43 mm^3
[2]; day 14, oral daily: compound 30 10 mg/kg, 33, 34, 40, 42, 43 20 mg/kg
  Tumor Volume (mm^3) 14 days: 27 mm^3
[2]; day 18, oral daily: compound 30 10 mg/kg, 33, 34, 40, 42, 43 20 mg/kg
  Tumor Volume (mm^3) 18 days: 9 mm^3
[2]; day 21, oral daily: compound 30 10 mg/kg, 33, 34, 40, 42, 43 20 mg/kg
  Tumor Volume (mm^3) 21 days: 3 mm^3
EGFR d746-750/T790M
  IC50: 0.4 nM
[3]; day 4, oral once daily: 33, 34, 40, 42, 43 20 mg/kg
  Tumor Volume (mm^3) 4 days: 202 mm^3
[3]; day 11, oral once daily: 33, 34, 40, 42, 43 20 mg/kg
  Tumor Volume (mm^3) 11 days: 428 mm^3
[3]; day 18, oral once daily: 33, 34, 40, 42, 43 20 mg/kg
  Tumor Volume (mm^3) 18 days: 930 mm^3
